According to ChEMBL document CHEMBL1130119, “2-Carbomethoxy-3-aryl-8-oxabicyclo[3.2.1]octanes: potent non-nitrogen inhibitors of monoamine transporters” (J Med Chem, 1997):

Tests used:
[1] = target: Sodium-dependent serotonin transporter (Homo sapiens, UniProt P31645); experiment: Inhibition of [3H]citalopram binding to the serotonin transporter (5-HT) in monkey caudate-putamen.; assay type: tissue-based, Cercopithecidae; conditions: target entry is the homologue from another species
[2] = target: Monoamine transporters; serotonin & dopamine (Homo sapiens) (UniProt P31645+Q01959); experiment: Selectivity ratio measured as the IC50 ratio of DAT receptor to that of 5-HT transporter; conditions: Cercopithecidae
Monoamine transporters; serotonin & dopamine (Homo sapiens), sequence (P31645 whole entry, looked up): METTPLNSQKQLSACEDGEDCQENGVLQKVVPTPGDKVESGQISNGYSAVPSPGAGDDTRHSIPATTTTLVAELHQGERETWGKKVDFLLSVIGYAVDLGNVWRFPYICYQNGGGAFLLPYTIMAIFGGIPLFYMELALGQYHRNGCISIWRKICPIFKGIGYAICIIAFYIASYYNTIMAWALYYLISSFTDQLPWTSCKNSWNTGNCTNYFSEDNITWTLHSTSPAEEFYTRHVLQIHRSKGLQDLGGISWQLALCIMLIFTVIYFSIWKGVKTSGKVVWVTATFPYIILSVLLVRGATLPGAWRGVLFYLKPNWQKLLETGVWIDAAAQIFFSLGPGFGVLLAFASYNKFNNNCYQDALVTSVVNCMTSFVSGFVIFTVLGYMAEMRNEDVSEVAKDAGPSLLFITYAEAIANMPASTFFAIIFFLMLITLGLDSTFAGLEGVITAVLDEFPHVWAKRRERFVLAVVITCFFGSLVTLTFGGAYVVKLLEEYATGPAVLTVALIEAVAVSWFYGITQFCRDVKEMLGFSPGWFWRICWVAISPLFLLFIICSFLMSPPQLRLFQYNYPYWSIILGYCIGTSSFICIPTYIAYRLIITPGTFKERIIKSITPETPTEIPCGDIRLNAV
Monoamine transporters; serotonin & dopamine (Homo sapiens), sequence (Q01959 whole entry, looked up): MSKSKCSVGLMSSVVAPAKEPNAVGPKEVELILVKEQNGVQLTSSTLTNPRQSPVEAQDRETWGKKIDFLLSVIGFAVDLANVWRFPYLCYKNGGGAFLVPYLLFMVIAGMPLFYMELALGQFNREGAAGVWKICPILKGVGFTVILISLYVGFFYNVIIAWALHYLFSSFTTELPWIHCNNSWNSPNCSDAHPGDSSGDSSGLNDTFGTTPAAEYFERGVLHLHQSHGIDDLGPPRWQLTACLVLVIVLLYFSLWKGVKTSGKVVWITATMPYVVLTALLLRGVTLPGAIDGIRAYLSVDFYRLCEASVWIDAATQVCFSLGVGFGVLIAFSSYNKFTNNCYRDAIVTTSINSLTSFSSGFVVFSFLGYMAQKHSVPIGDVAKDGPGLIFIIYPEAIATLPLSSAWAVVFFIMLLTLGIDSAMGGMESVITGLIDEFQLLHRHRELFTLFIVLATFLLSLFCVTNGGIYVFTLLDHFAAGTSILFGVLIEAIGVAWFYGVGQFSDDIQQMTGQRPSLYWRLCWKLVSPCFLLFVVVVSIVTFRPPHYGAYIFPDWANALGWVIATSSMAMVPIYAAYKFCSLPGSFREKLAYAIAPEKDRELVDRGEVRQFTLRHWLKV

Sodium-dependent serotonin transporter, sequence (P31645 whole entry): as the sequence (P31645 whole entry, looked up) above

COC(=O)C1C2CCC(CC1c1ccc(I)cc1)O2 (stereo in doubt) [listing 1 of 2 here]
IC50 [1]: 12 nM

COC(=O)C1C2CCC(CC1c1ccc(I)cc1)O2 (stereo in doubt) [listing 2 of 2 here]
Selectivity ratio [2]: 1.7

COC(=O)C1C2CCC(CC1c1ccccc1)O2 (stereo in doubt; 6a (O-904)) [listing 1 of 2 here]
IC50 [1]: > 10000 nM

COC(=O)C1C2CCC(CC1c1ccccc1)O2 (stereo in doubt; 6a (O-904)) [listing 2 of 2 here]
Selectivity ratio [2]: 10

COC(=O)C1C2CCC(CC1c1ccc(F)cc1)O2 (stereo in doubt; 6b (O-895)) [listing 1 of 2 here]
IC50 [1]: 2580 nM

COC(=O)C1C2CCC(CC1c1ccc(F)cc1)O2 (stereo in doubt; 6b (O-895)) [listing 2 of 2 here]
Selectivity ratio [2]: 5

COC(=O)C1C2CCC(CC1c1ccc(Cl)cc1)O2 (stereo in doubt; 6c (O-916)) [listing 1 of 2 here]
IC50 [1]: 107 nM

COC(=O)C1C2CCC(CC1c1ccc(Cl)cc1)O2 (stereo in doubt; 6c (O-916)) [listing 2 of 2 here]
Selectivity ratio [2]: 11

COC(=O)C1C2CCC(CC1c1ccc(Cl)c(Cl)c1)O2 (stereo in doubt; 6f (O-914)) [listing 1 of 2 here]
IC50 [1]: 6.52 nM

COC(=O)C1C2CCC(CC1c1ccc(Cl)c(Cl)c1)O2 (stereo in doubt; 6f (O-914)) [listing 2 of 2 here]
Selectivity ratio [2]: 2

COC(=O)C1C2CCC(CC1c1ccccc1)O2 (stereo in doubt; 7a (O-905)) [listing 1 of 2 here]
IC50 [1]: 11400 nM

COC(=O)C1C2CCC(CC1c1ccccc1)O2 (stereo in doubt; 7a (O-905)) [listing 2 of 2 here]
Selectivity ratio [2]: 6

COC(=O)C1C2CCC(CC1c1ccc(F)cc1)O2 (stereo in doubt; 7b (O-899)) [listing 1 of 2 here]
IC50 [1]: > 10000 nM

COC(=O)C1C2CCC(CC1c1ccc(F)cc1)O2 (stereo in doubt; 7b (O-899)) [listing 2 of 2 here]
Selectivity ratio [2]: 10

COC(=O)C1C2CCC(CC1c1ccc(Cl)cc1)O2 (stereo in doubt; 7c (O-915)) [listing 1 of 2 here]
IC50 [1]: 816 nM

COC(=O)C1C2CCC(CC1c1ccc(Cl)cc1)O2 (stereo in doubt; 7c (O-915)) [listing 2 of 2 here]
Selectivity ratio [2]: 29

COC(=O)C1C2CCC(CC1c1ccc(I)cc1)O2 (stereo in doubt; 7e (O-949)) [listing 1 of 2 here]
IC50 [1]: 72 nM

COC(=O)C1C2CCC(CC1c1ccc(I)cc1)O2 (stereo in doubt; 7e (O-949)) [listing 2 of 2 here]
Selectivity ratio [2]: 2

COC(=O)C1C2CCC(CC1c1ccc(Cl)c(Cl)c1)O2 (stereo in doubt; 7f (O-913)) [listing 1 of 2 here]
IC50 [1]: 64.5 nM

COC(=O)C1C2CCC(CC1c1ccc(Cl)c(Cl)c1)O2 (stereo in doubt; 7f (O-913)) [listing 2 of 2 here]
Selectivity ratio [2]: 21

COC(=O)C1C(c2ccc(I)cc2)CC2CCC1N2C (stereo in doubt; 8d)
IC50 [1]: 4.21 nM

COC(=O)[C@H]1[C@@H](c2ccc(F)cc2)C[C@H]2CC[C@H]1N2C (stereo in doubt; 19b)
IC50 [1]: 5060 nM

COC(=O)C1C(c2ccc(I)cc2)CC2CCC1N2C (stereo in doubt; 19d)
IC50 [1]: 64.9 nM

COC(=O)C1C2CCC(CC1c1ccc(Cl)c(Cl)c1)O2 (stereo in doubt; form 1) [listing 1 of 2 here]
IC50 [1]: 58 nM

COC(=O)C1C(c2ccc(Cl)c(Cl)c2)CC2CCC1N2C (stereo in doubt; form 1)
IC50 [1]: 27 nM

COC(=O)C1C2CCC(CC1c1ccc(Br)cc1)O2 (stereo in doubt; form 1) [listing 1 of 2 here]
IC50 [1]: 30 nM

COC(=O)C1C2CCC(CC1c1ccc(Br)cc1)O2 (stereo in doubt; form 1) [listing 2 of 2 here]
Selectivity ratio [2]: 1.4

COC(=O)C1C2CCC(CC1c1ccc(Cl)c(Cl)c1)O2 (stereo in doubt; form 1) [listing 2 of 2 here]
Selectivity ratio [2]: 1.2

COC(=O)C1C2CCC(CC1c1ccc(Cl)c(Cl)c1)O2 (stereo in doubt; form 2) [listing 1 of 2 here]
IC50 [1]: 2860 nM

COC(=O)C1C2CCC(CC1c1ccc(Br)cc1)O2 (stereo in doubt; form 2) [listing 1 of 2 here]
IC50 [1]: 276 nM

COC(=O)C1C2CCC(CC1c1ccc(Br)cc1)O2 (stereo in doubt; form 2) [listing 2 of 2 here]
Selectivity ratio [2]: 31

COC(=O)C1C2CCC(CC1c1ccc(Cl)c(Cl)c1)O2 (stereo in doubt; form 2) [listing 2 of 2 here]
Selectivity ratio [2]: 51

COC(=O)C1C2CCC(CC1c1ccc(Cl)c(Cl)c1)O2 (stereo in doubt; form 3) [listing 1 of 2 here]
IC50 [1]: 31 nM

COC(=O)C1C2CCC(CC1c1ccc(Cl)c(Cl)c1)O2 (stereo in doubt; form 3) [listing 2 of 2 here]
Selectivity ratio [2]: 13

COC(=O)C1C2CCC(CC1c1ccc(Cl)c(Cl)c1)O2 (stereo in doubt; form 4) [listing 1 of 2 here]
IC50 [1]: 4.67 nM

COC(=O)C1C2CCC(CC1c1ccc(Cl)c(Cl)c1)O2 (stereo in doubt; form 4) [listing 2 of 2 here]
Selectivity ratio [2]: 1.4
